# Data taken from patent US20210215714A1, “COMPLEMENT ALTERNATIVE PATHWAY-ASSOCIATED NEPHROPATHY BIOMARKERS” (Achillion Pharmaceuticals, Inc., priority 2018, published 2021).
# Test system: sC5b-9
# Experiment: Phase 2a study: urinary sC5b-9 (MicroVue sC5b-9 Enzyme Immunoassay);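 further: urine from C3 glomerulopathy or IC-MPGN patients, sandwich ELISA capturing sC5b-9 via C9-ring monoclonal with HRP detection read at 450 nm, values raw or normalized to creatinine or albumin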
# [1] = Patient A, 100 mg TID, Day 1/0 Hour
# [2] = Patient A, 100 mg TID, Day 7/0 Hour
# [3] = Patient A, 100 mg TID, Day 15 Taper
# [4] = Patient A, 100 mg TID, Day 16 Taper
# [5] = Patient A, 100 mg TID, Day 17 Taper
# [6] = Patient A, 100 mg TID, Day 21 Taper
# [7] = Patient A, 100 mg TID, Follow-Up Day 24
# [8] = Patient A, 100 mg TID, Follow-Up Day 28
# [9] = Patient A, 100 mg TID, Follow-Up Day 49
# [10] = Patient B, 100 mg TID, Day 1/0 Hour
# [11] = Patient B, 100 mg TID, Day 7/0 Hour
# [12] = Patient B, 100 mg TID, Day 15 Taper
# [13] = Patient B, 100 mg TID, Day 16 Taper
# [14] = Patient B, 100 mg TID, Day 17 Taper
# [15] = Patient B, 100 mg TID, Day 21 Taper
# [16] = Patient B, 100 mg TID, Follow-Up Day 24
# [17] = Patient B, 100 mg TID, Follow-Up Day 28
# [18] = Patient B, 100 mg TID, Follow-Up Day 49
# [19] = Patient C, 200 mg TID, Day 1/0 Hour
# [20] = Patient C, 200 mg TID, Day 7/0 Hour
# [21] = Patient C, 200 mg TID, Day 15 Taper
# [22] = Patient C, 200 mg TID, Day 16 Taper
# [23] = Patient C, 200 mg TID, Day 17 Taper
# [24] = Patient C, 200 mg TID, Day 21 Taper
# [25] = Patient C, 200 mg TID, Follow-Up Day 24
# [26] = Patient C, 200 mg TID, Follow-Up Day 28
# [27] = Patient C, 200 mg TID, Follow-Up Day 49
# [28] = Patient C, 200 mg TID, Screen 1
# [29] = Patient D, 200 mg TID, Day 1/0 Hour
# [30] = Patient D, 200 mg TID, Day 7/0 Hour
# [31] = Patient D, 200 mg TID, Day 15 Taper
# [32] = Patient D, 200 mg TID, Day 17 Taper
# Description: 10 patients with either C3 Glomerulopathy (C3G) or Immune-Complex Membranoproliferative Glomerulonephritis (IC-MPGN) are to be enrolled across two dose groups. […] Inclusion criteria include a clinical diagnosis of C3G (C3 glomerulonephritis [C3GN] or dense deposit disease [DDD], the 2 types of C3G) or idiopathic immune-complex membranoproliferative glomerulonephritis (IC-MPGN) by renal biopsy for at least 3 months prior to dosing, with the pathologic diagnosis verified by review of the renal biopsy by the study central pathologist. Patients must have low C3 levels (<50% of the lower limit of normal) and normal or near-normal C4 levels (>90% of the lower limit of normal).
# To measure urinary sC5b-9 production, patient urine samples were tested utilizing the MicroVue sC5b-9 Enzyme Immunoassay for the quantitation of sC5b-9 in urine. […] The samples were tested utilizing the MicroVue sC5b-9 Enzyme Immunoassay for the quantitation of sC5b-9 urine, which is a three-step procedure utilizing a micro-assay plate coated with a mouse monoclonal antibody that binds specifically to the C9 ring of sC5b-9, HRP-conjugated antibodies to antigens of sC5b-9, and a chromogenic substrate. In step 1, standards, controls, and test specimens are added to micro-assay wells pre-coated with an anti-sC5b-9 specific monoclonal antibody. sC5b-9 present in the Standards, Controls, or specimens will bind to the immobilized sC5b-9 monoclonal antibody. After incubation, a wash cycle removes unbound material. […] In step 2, horseradish peroxidase (HRP)-conjugated antibodies to antigens of sC5b-9 are added to each test well. The enzyme conjugated antibodies bind to sC5b-9 that was captured by the monoclonal anti-sC5b-9 bound on the surface of the micro-assay wells. After incubation, a wash cycle removes unbound, excess conjugate. In step 3, a chromogenic enzyme substrate is added to each micro-assay well. The bound HRP-conjugate reacts with the substrate, forming a blue color. After incubation the enzyme reaction is stopped chemically, the color changes to yellow, and the color intensity is measured spectrophotometrically at 450 nm. The color intensity of the reaction mixture is proportional to the concentration of sC5b-9 present in the test specimens, standards, and controls. […] Measurements of urinary biomarkers are typically normalized to urine creatinine or albumin levels to account for variation in biomarker levels due to changes in urinary filtration rate.
smiles,measurement,setting,value
"CC(=O)c1nn(CC(=O)N2C[C@H](F)C[C@H]2C(=O)Nc2cccc(Br)n2)c2ccc(-c3cnc(C)nc3)cc12 [Compound 1, (2S,4R)-1-(2-(3-acetyl-5-(2-methylpyrimidin-5-yl)-1H-indazol-1-yl)acetyl)-N-(6-bromopyridin-2-yl)-4-fluoropyrrolidine-2-carboxamide]",sC5b-9/ALB,[1],38 ng/mg
same,sC5b-9/Cr,[1],9.9 µg/mmol
same,Urine sC5b-9,"Patient A, 100 mg TID, Day 1 predose",81.2 ng/mL
same,Urine sC5b-9,"Patient A, 100 mg TID, Day 4",84.2 ng/mL
same,sC5b-9/ALB,"Patient A, 100 mg TID, Day 4",48 ng/mg
same,sC5b-9/Cr,"Patient A, 100 mg TID, Day 4",10.5 µg/mmol
same,Urine sC5b-9,"Patient A, 100 mg TID, Day 7",70.4 ng/mL
same,sC5b-9/ALB,[2],46 ng/mg
same,sC5b-9/Cr,[2],10.7 µg/mmol
same,Urine sC5b-9,"Patient A, 100 mg TID, Day 10",52.0 ng/mL
same,sC5b-9/ALB,"Patient A, 100 mg TID, Day 10",37 ng/mg
same,sC5b-9/Cr,"Patient A, 100 mg TID, Day 10",8.4 µg/mmol
same,Urine sC5b-9,[3],56.9 ng/mL
same,sC5b-9/ALB,[3],54 ng/mg
same,sC5b-9/Cr,[3],7.8 µg/mmol
same,Urine sC5b-9,[4],66.2 ng/mL
same,sC5b-9/ALB,[4],62 ng/mg
same,sC5b-9/Cr,[4],8.8 µg/mmol
same,Urine sC5b-9,[5],84.4 ng/mL
same,sC5b-9/ALB,[5],74 ng/mg
same,sC5b-9/Cr,[5],8.5 µg/mmol
same,Urine sC5b-9,[6],85.8 ng/mL
same,sC5b-9/ALB,[6],70 ng/mg
same,sC5b-9/Cr,[6],9.9 µg/mmol
same,Urine sC5b-9,[7],95.0 ng/mL
same,sC5b-9/ALB,[7],69 ng/mg
same,sC5b-9/Cr,[7],9.5 µg/mmol
same,Urine sC5b-9,[8],79.7 ng/mL
same,sC5b-9/ALB,[8],61 ng/mg
same,sC5b-9/Cr,[8],8.0 µg/mmol
same,Urine sC5b-9,[9],57.5 ng/mL
same,sC5b-9/ALB,[9],92 ng/mg
same,sC5b-9/Cr,[9],13.4 µg/mmol
same,Urine sC5b-9,"Patient A, 100 mg TID, Screen",76.3 ng/mL
same,sC5b-9/ALB,"Patient A, 100 mg TID, Screen",40 ng/mg
same,sC5b-9/Cr,"Patient A, 100 mg TID, Screen",9.2 µg/mmol
same,sC5b-9/ALB,[10],1500 ng/mg
same,sC5b-9/Cr,[10],866 µg/mmol
same,Urine sC5b-9,"Patient B, 100 mg TID, Day 1 predose",5280 ng/mL
same,Urine sC5b-9,"Patient B, 100 mg TID, Day 4",2139 ng/mL
same,sC5b-9/ALB,"Patient B, 100 mg TID, Day 4",637 ng/mg
same,sC5b-9/Cr,"Patient B, 100 mg TID, Day 4",168 µg/mmol
same,Urine sC5b-9,"Patient B, 100 mg TID, Day 7",2266 ng/mL
same,sC5b-9/ALB,[11],624 ng/mg
same,sC5b-9/Cr,[11],155 µg/mmol
same,Urine sC5b-9,"Patient B, 100 mg TID, Day 10",1073 ng/mL
same,sC5b-9/ALB,"Patient B, 100 mg TID, Day 10",563 ng/mg
same,sC5b-9/Cr,"Patient B, 100 mg TID, Day 10",143 µg/mmol
same,Urine sC5b-9,"Patient B, 100 mg TID, Day 14",4010 ng/mL
same,sC5b-9/ALB,"Patient B, 100 mg TID, Day 14",911 ng/mg
same,sC5b-9/Cr,"Patient B, 100 mg TID, Day 14",240 µg/mmol
same,Urine sC5b-9,[12],3334 ng/mL
same,sC5b-9/ALB,[12],929 ng/mg
same,sC5b-9/Cr,[12],303 µg/mmol
same,Urine sC5b-9,[13],4784 ng/mL
same,sC5b-9/ALB,[13],1154 ng/mg
same,sC5b-9/Cr,[13],380 µg/mmol
same,Urine sC5b-9,[14],2693 ng/mL
same,sC5b-9/ALB,[14],907 ng/mg
same,sC5b-9/Cr,[14],238 µg/mmol
same,Urine sC5b-9,[15],2469 ng/mL
same,sC5b-9/ALB,[15],821 ng/mg
same,sC5b-9/Cr,[15],305 µg/mmol
same,Urine sC5b-9,[16],3958 ng/mL
same,sC5b-9/ALB,[16],1380 ng/mg
same,sC5b-9/Cr,[16],649 µg/mmol
same,Urine sC5b-9,[17],2376 ng/mL
same,sC5b-9/ALB,[17],882 ng/mg
same,sC5b-9/Cr,[17],335 µg/mmol
same,Urine sC5b-9,[18],14132 ng/mL
same,sC5b-9/ALB,[18],6312 ng/mg
same,sC5b-9/Cr,[18],883 µg/mmol
same,Urine sC5b-9,"Patient B, 100 mg TID, Screen",2598 ng/mL
same,sC5b-9/ALB,"Patient B, 100 mg TID, Screen",724 ng/mg
same,sC5b-9/Cr,"Patient B, 100 mg TID, Screen",351 µg/mmol
same,sC5b-9/ALB,[19],203 ng/mg
same,sC5b-9/Cr,[19],11.9 µg/mmol
same,Urine sC5b-9,"Patient C, 200 mg TID, Day 1 predose",21.5 ng/mL
same,Urine sC5b-9,"Patient C, 200 mg TID, Day 4",<8.8 ng/mL
same,sC5b-9/ALB,"Patient C, 200 mg TID, Day 4",173 ng/mg
same,sC5b-9/Cr,"Patient C, 200 mg TID, Day 4",4.63 µg/mmol
same,Urine sC5b-9,"Patient C, 200 mg TID, Day 7",<8.8 ng/mL
same,sC5b-9/ALB,[20],110 ng/mg
same,sC5b-9/Cr,[20],2.38 µg/mmol
same,Urine sC5b-9,"Patient C, 200 mg TID, Day 10",<8.8 ng/mL
same,sC5b-9/ALB,"Patient C, 200 mg TID, Day 10",160 ng/mg
same,sC5b-9/Cr,"Patient C, 200 mg TID, Day 10",5.50 µg/mmol
same,Urine sC5b-9,"Patient C, 200 mg TID, Day 14",<8.8 ng/mL
same,sC5b-9/ALB,"Patient C, 200 mg TID, Day 14",220 ng/mg
same,sC5b-9/Cr,"Patient C, 200 mg TID, Day 14",6.77 µg/mmol
same,Urine sC5b-9,[21],<8.8 ng/mL
same,sC5b-9/ALB,[21],131 ng/mg
same,sC5b-9/Cr,[21],5.87 µg/mmol
same,Urine sC5b-9,[22],<8.8 ng/mL
same,sC5b-9/ALB,[22],176 ng/mg
same,sC5b-9/Cr,[22],4.63 µg/mmol
same,Urine sC5b-9,[23],<8.8 ng/mL
same,sC5b-9/ALB,[23],126 ng/mg
same,sC5b-9/Cr,[23],4.00 µg/mmol
same,Urine sC5b-9,[24],10.3 ng/mL
same,sC5b-9/ALB,[24],158 ng/mg
same,sC5b-9/Cr,[24],3.67 µg/mmol
same,Urine sC5b-9,[25],11.0 ng/mL
same,sC5b-9/ALB,[25],186 ng/mg
same,sC5b-9/Cr,[25],6.11 µg/mmol
same,Urine sC5b-9,[26],21.2 ng/mL
same,sC5b-9/ALB,[26],154 ng/mg
same,sC5b-9/Cr,[26],7.32 µg/mmol
same,Urine sC5b-9,[27],14.0 ng/mL
same,sC5b-9/ALB,[27],149 ng/mg
same,sC5b-9/Cr,[27],3.04 µg/mmol
same,Urine sC5b-9,"Patient C, 200 mg TID, Screen",32.1 ng/mL
same,sC5b-9/ALB,"Patient C, 200 mg TID, Screen",387 ng/mg
same,sC5b-9/Cr,"Patient C, 200 mg TID, Screen",16.9 µg/mmol
same,Urine sC5b-9,[28],57.4 ng/mL
same,sC5b-9/ALB,[28],422 ng/mg
same,sC5b-9/Cr,[28],52.2 µg/mmol
same,sC5b-9/ALB,[29],22 ng/mg
same,sC5b-9/Cr,[29],4.8 µg/mmol
same,Urine sC5b-9,"Patient D, 200 mg TID, Day 1 predose",28.1 ng/mL
same,Urine sC5b-9,"Patient D, 200 mg TID, Day 4",18.5 ng/mL
same,sC5b-9/ALB,"Patient D, 200 mg TID, Day 4",15 ng/mg
same,sC5b-9/Cr,"Patient D, 200 mg TID, Day 4",4.1 µg/mmol
same,Urine sC5b-9,"Patient D, 200 mg TID, Day 7",15.8 ng/mL
same,sC5b-9/ALB,[30],43 ng/mg
same,sC5b-9/Cr,[30],14.3 µg/mmol
same,Urine sC5b-9,"Patient D, 200 mg TID, Day 10",8.9 ng/mL
same,sC5b-9/ALB,"Patient D, 200 mg TID, Day 10",14 ng/mg
same,sC5b-9/Cr,"Patient D, 200 mg TID, Day 10",8.9 µg/mmol
same,Urine sC5b-9,"Patient D, 200 mg TID, Day 14",12.0 ng/mL
same,sC5b-9/ALB,"Patient D, 200 mg TID, Day 14",13 ng/mg
same,sC5b-9/Cr,"Patient D, 200 mg TID, Day 14",3.9 µg/mmol
same,Urine sC5b-9,[31],20.3 ng/mL
same,sC5b-9/ALB,[31],10 ng/mg
same,sC5b-9/Cr,[31],4.8 µg/mmol
same,Urine sC5b-9,[32],15.3 ng/mL
same,sC5b-9/ALB,[32],9 ng/mg
same,sC5b-9/Cr,[32],5.3 µg/mmol
